Source: patent US20220127258A1, “AROMATIC RING OR HETEROAROMATIC RING COMPOUNDS, PREPARATION METHOD THEREFOR AND MEDICAL USE THEREOF” (The National Institutes of Pharmaceutical R&D Co., Ltd., priority 2019, published 2022)

Columns and labels:
[1] = test system: cholestasis rat induced by ANIT; assay: Efficacy on the cholestasis rat model induced by 1-naphthyl isothiocyanate (ANIT); assay type: in vivo, SD rats; design: ALT / AST / GGT / TBA: unit not given here; settings: for level of ALT, AST, GGT and TBA in the serum of ANIT rat (in words): 3 and 10 mg/kg/d, conclusion of Test Example 2; for ALT / AST / GGT / TBA: serum, 4 days, ANIT rat
Protocol: Animals: SD rats, male, 7 to 8 weeks old, weight: 220 to 240 g, purchased from Beijing Vital River Laboratory Animal Technology Co., Ltd., SPF grade, Certificate No.: SCXK (Beijing) 2016-0011, license issuing administration: Beijing Municipal Commission of Science and Technology.
Sample formulation: The compound of the present invention was added to DMSO, and dissolved completely by ultrasound. 0.5% CMC-Na was added to constant volume (DMSO: 0.5% CMC-Na=1:99), and the solution was homogenized by ultrasound for later use.
After 3 to 5 days of acclimation, the animals were divided into 20 groups according to body weight: normal group, model group, Example 8 (3 mg/kg/d, 10 mg/kg/d) group, Example 11 (3 mg/kg/d, 10 mg/kg/d) group, Example 12 (3 mg/kg/d, 10 mg/kg/d) group, Example 14 (3 mg/kg/d, 10 mg/kg/d) group, Example 20 (3 mg/kg/d, 10 mg/kg/d) group, Example 22 (3 mg/kg/d, 10 mg/kg/d) group, Example 26 (3 mg/kg/d, 10 mg/kg/d) group, Example 28 (3 mg/kg/d, 10 mg/kg/d) group, and Example 29 (3 mg/kg/d, 10 mg/kg/d) group, with 10 rats for each group. Intragastric administration was conducted with an administration volume of 10 mL/kg, once a day, for a total of 4 days. On Day 2, ANIT (1-naphthyl isothiocyanate, Macklin, purity: 98%, item number: N814658, CAS number: 551-06-4, specification: 5 g/bottle, storage conditions: 2 to 8 degrees, batch number: C10116101) with a dose of 50 mg/kg and an administration volume of 5 mL/kg was administered intragastrically once to each animal (except for animals in the normal group) 4 hours after the administration. The animals were fasted on Day 4 morning. The animals were anesthetized by isoflurane inhalation using a small animal anesthesia machine. Blood was collected from the venous plexus behind the eyeball using a capillary glass tube (about 1 ml per animal), and then left to stand for about one hour. It was centrifuged at 3500 rpm for 10 minutes to obtain the serum. ALT, AST, GGT and TBA indexes as well as the plasma concentration of the compound were determined using an AU480 automatic biochemical analysis system (BECKMAN COULTER). Liver was collected, weighed, and cutted into pieces. Normal saline was added (liver weight: normal saline=1:2), and the mixture was homogenized and freezed. The concentration of the compound in liver was determined using an ultra performance liquid chromatograph (Shimadzu, LC 30AD) and triple quadrupole mass spectrometer (AB, TQ5500).

FXR = target: T1, FXR (Homo sapiens, UniProt Q96RI1); assay: FXR agonistic activity, luciferase assay; assay type: cell-based; settings: luc2P-GAL4-HEK293 cells transfected with pBIND-FXR, 24 hours
T1 sequence (Q96RI1 262-486 limits assumed): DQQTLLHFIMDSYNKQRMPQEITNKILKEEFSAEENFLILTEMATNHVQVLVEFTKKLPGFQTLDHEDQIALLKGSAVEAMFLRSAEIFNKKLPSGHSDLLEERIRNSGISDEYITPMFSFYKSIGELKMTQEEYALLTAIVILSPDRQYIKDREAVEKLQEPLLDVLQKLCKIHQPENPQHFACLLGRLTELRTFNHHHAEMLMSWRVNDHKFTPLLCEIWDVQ
Protocol: The FXR agonistic activity of the compound of the present invention was evaluated using the luciferase assay.
The experimental process comprises the follows. The luc2P-GAL4-HEK293 stably transfected cell line (the cell line was established by transfecting pGL4.35 plasmid with HEK293 cells which was then subjected to Hygromycin B screening. The cell contained 9×GAL4 UAS and firefly luciferase reporter gene. The ligand-activated LBD-GAL4 DBD fusion protein can enter the nucleus to bind to 9×GAL4 UAS and activate the transcription of the downstream luciferase reporter gene) was transferred to a 96-well plate with […] per well. pBIND-FXR (Which was constructed by inserting FXR-LBD into pFN26A-BIND hRluc-neo Flexi® vector. The plasmid was 7.5 kb in size, Amp resistant, contained FXR-LBD, and can express FXR-LBD and GAL4 DBD fusion proteins) was transfected using X-tremeGENE HP transfection reagent. The ratio of plasmid to transfection reagent was 1 μg: 2 μl. The specific amount was 100 ng of plasmid and 0.2 μl of X-tremeGENE HP transfection reagent per well. The test compounds (the highest concentration of each compound was 30 μM, 3-fold dilution, a total of 10 concentrations) were added to induce the expression of luciferase. After 24 hours, the 96-well plate containing the test cells was taken out from the incubator, and placed at room temperature. Dual-Glo® Luciferase Reagent with the volume equal to the volume of the medium in the well (80 μl/well) was added to each well and mixed well. The plate was incubated at room temperature for 20 minutes to allow the cells to be fully lysed. All the liquid in the plate was transferred to a 96-well microtiter plate, and the firefly luciferin value was measured with a multi-function plate reader (manufacturer: Bio Tek (USA); model: Synergy4). Dual-Glo® a Stop & Glo® Reagent with the volume equal to the volume of the initial medium (80 μl/well) was added to each well and mixed well. The plate was incubated at room temperature for 10 minutes, and the renilla luciferin value was measured. The measurement order of renilla fluorescence should be the same as that of firefly fluorescence. Curve fitting and EC50 calculation were conducted using GraphPad Prism 5 software by nonlinear regression method. The fitting equation is: Y=Bottom+(Top−Bottom)/(1+10^((Log EC50−X)*HillSlope)), wherein EC50 refers to the semi-effective concentration, Top refers to the maximum effect, Bottom refers to the blank effect, and HillSlope refers to the slope.

Compound | level of ALT, AST, GGT and TBA in the serum of ANIT rat (in words) [1] | ALT ([1]; 3 mg/kg/d intragastric) | AST ([1]; 3 mg/kg/d intragastric) | GGT ([1]; 3 mg/kg/d intragastric) | TBA ([1]; 3 mg/kg/d intragastric) | ALT ([1]; 10 mg/kg/d intragastric) | AST ([1]; 10 mg/kg/d intragastric) | GGT ([1]; 10 mg/kg/d intragastric) | TBA ([1]; 10 mg/kg/d intragastric) | EC50 (FXR) [µM]
O=C(O)c1ccc(-c2nnc(N3[C@@H]4CC[C@H]3C[C@@H](OCc3c(-c5c(Cl)cccc5Cl)noc3C3CC3)C4)o2)cc1 [Example 8, 4-(5-((1R,3r,5S)-3-((5-cyclopropyl-3-(2,6-dichlorophenyl)isoxazol-4-yl)methoxy)-8-azabicyclo[3.2.1]octan-8-yl)-1,3,4-oxadiazol-2-yl)benzoic acid] | significantly reduce | 164.8 ± 85.0 | 401.8 ± 172.8 | 2.5 ± 0.7 | 100.0 ± 99.8 | 79.9 ± 98.7 | 243.5 ± 192.6 | 2.0 ± 0.5 | 32.9 ± 68.0 | < 0.025
O=C(O)c1ccc(-c2nnc(N3[C@@H]4CC[C@H]3C[C@@H](OCc3c(-c5c(Cl)cccc5Cl)noc3C3CC3)C4)o2)s1 [Example 11] | significantly reduce | 276.3 ± 118.0 | 761.3 ± 253.7 | 4.9 ± 0.9 | 243.4 ± 72.4 | 180.3 ± 107.8 | 466.1 ± 242.4 | 3.7 ± 1.5 | 190.3 ± 140.7 | 0.1 to 0.5
Cc1cc(C(=O)O)ccc1-c1nnc(N2[C@@H]3CC[C@H]2C[C@@H](OCc2c(-c4c(Cl)cccc4Cl)noc2C2CC2)C3)o1 [Example 14] | significantly reduce | 220.3 ± 104.0 | 643.3 ± 239.3 | 4.6 ± 1.3 | 235.8 ± 80.1 | 45.5 ± 11.9 | 181.4 ± 20.8 | 1.7 ± 0.4 | 20.3 ± 12.3 | < 0.025
O=C(O)c1ccc(-c2nnc(N3[C@@H]4CC[C@H]3C[C@@H](OCc3c(-c5ccccc5OC(F)(F)F)noc3C3CC3)C4)o2)cc1 [Example 22, 4-(5-((1R,3r,5S)-3-((5-cyclopropyl-3-(2-(trifluoromethoxy)phenyl)isoxazol-4-yl)methoxy)-8-azabicyclo[3.2.1]octan-8-yl)-1,3,4-oxadiazol-2-yl)benzoic acid] | significantly reduce | 100.8 ± 90.9 | 324.8 ± 313.1 | 2.7 ± 1.7 | 73.3 ± 103.2 | 44.5 ± 8.1 | 163.3 ± 21.3 | 1.8 ± 0.5 | 27.4 ± 13.6 | < 0.025
